# Legend:
# [1] = system: prostate of castrated male NMRI mice; experiment: Prostate weights of castrated mice after combined testosterone/gestagen treatment; assay type: in vivo
# Experimental: The inhibition of a prostate growth that was induced by androgens and that was treated with a combination according to the invention, was also examined in the animal experiment.
# To this end, 5 male NMRI mice of Møllegaard Breeding Centre Deutschland GmbH, Schönwalde weighing 28-30 g were castrated. Two weeks after the castration, testosterone propionate (TP) by itself—0.1 mg/animal—was administered to the control animals.
# Also, two weeks after castration, the test animals were orally treated daily for one week with testosterone propionate (TP) 0.1 mg/animal/day s.c. and simultaneously with the following gestagens and the following dosages:
# cyproterone acetate (CPA) at dosages of 0.1; 0.3; 1; 3 mg/animal/day dienogest (DNG) at dosages of 0.3; 1; 3; 10 mg/animal/day, chloromadinone acetate (CMA) at dosages 0.3; 1; 3; 10 mg/animal/day.
# At the end of the test, the prostate weights of the mice were determined, and the test groups were compared.
# LNCaP prostate cells = experiment: Inhibition of androgen-dependent cell proliferation in LNCaP prostate cells (growth assay, cell number after 7 days); assay type: cell-based, human; settings: androgen alone, FIG. 1
# From the text: In the example of the inhibition of the androgen-dependent cell proliferation in LNCaP prostate cells, the biological mechanism of action of the combination of 17β-hydroxy-17α-methyl-estra-4,9,11-trien-3-one (R 1881)+the 17α-cyano-methyl-17β-hydroxy-estra-4,9-dien-3-one (DIENOGEST=DNG) was examined.
# To this end, the human prostate cancer cell LNCaP was cultivated under routine conditions in Dulbecco's modified Eagle medium (DMEM) with the addition of 10% FCS (fetal calf serum).
# The cells were then cultured for 2 to 6 passages with DMEM and 10% DCC-FCS (steroid-depleted FCS), before it was used in a growth assay with 5% DCC-FCS.
# For the test, the cells were saturated in 24-well plates (10,000 cells/well and ml).
# After 24 hours, the steroids that were dissolved in ethanol were added to fresh test medium (final concentration of ethanol 0.1%), and the cells were incubated for 7 days at 37° (5% CO2). The cell number was determined after this time in a cell counting and analysis system (CASY, Scharfe System GmbH).
# prostate [2] = settings: young men under exogenic testosterone administration; cited from earlier work
# prostate [3] = settings: 8-month therapy, 23 men aged 40-65 years, 160 mg/day; cited from earlier work
structure (smiles),measurement,setting,value
"CCC(=O)O[C@H]1CC[C@H]2[C@@H]3CCC4=CC(=O)CC[C@]4(C)[C@H]3CC[C@]12C [TP, testosterone propionate]",Effect on prostate weight compared to the castrated and the intact control animals,[1]; 0.1 mg/animal/day,causes a clear increase of the prostate weight
same,Prostate weight (mean value ± S.D.),"[1]; TP 0.1 mg/animal alone (TP control), n = 5",4.4 ± 0.7 mg
"C[C@]1(O)CC[C@H]2[C@@H]3CCC4=CC(=O)CCC4=C3C=C[C@@]21C [R1881, 17β-hydroxy-17α-methyl-estra-4,9,11-trien-3-one]",Cell growth of LNCaP cells,LNCaP prostate cells,induces a cell growth
CCCCCCC(=O)O[C@H]1CC[C@H]2[C@@H]3CCC4=CC(=O)CC[C@]4(C)[C@H]3CC[C@]12C [testosterone enanthate],Prostate size by transrectal ultrasound,prostate [2],an enlargement of the prostate was found
CCCCCCCCCCC(=O)O[C@H]1CC[C@H]2[C@@H]3CCC4=CC(=O)CC[C@]4(C)[C@H]3CC[C@]12C [testosterone undecanoate],Increase in size of the prostate,prostate [3],12%

# Reference: patent publication US20070078091A1, “Pharmaceutical combinations for compensating for a testosterone deficiency in men while simultaneously protecting the prostate” (priority 1998, published 2007)
